Where a name gives a salt, the structure may show the parent alone.
Experiments:
[1] = test system: bacteria; assay: Minimum inhibitory concentration (MIC) assay, bacteria; type: cell-based
Protocol: (§1) The assays described below were used to measure the minimum inhibitory concentration (MIC) of a compound necessary to inhibit visible growth of the organism tested. These assays are adapted from NCCLS protocols M7-A4 and M27-A (NCCLS vol 17:9 and vol 17:2) as modified by Sandven, S., Clin. Micro. (1999) 37:12, p. 3856–3859. MIC values for Aspergillus species were determined using NCCLS protocol M38-P.
(§2) All compounds were dissolved in 100% DMSO to a stock concentration of 10 mM and used fresh stock compounds in powder form were kept frozen until needed and used freshly. When used for test purposes, compounds were diluted in the appropriate media depending on the organism being tested.
(§3) For yeast and aspergillus species, seven 1:2 serial dilutions of compound in appropriate media buffered with MOPS at pH 7.0 were prepared such that the final starting test compound concentrations were 44.4 μM for yeast and 50 μM aspergillus species. For bacteria, dilutions were made in growth media used for the particular bacteria being tested.
Five well-separated colonies from a 24 h Sabouraud Dextrose plate incubated at 35° C. were picked and resuspended into 2 mL of normal saline. The O.D.530 was read and the culture was adjusted to 0.5 McFarland units with normal saline. A 1:2000 dilution was made with RPMI 1640 media buffered with MOPS at pH 7.0 and 100 μL of this inoculum preparation was added to an equal volume of test compound-containing media. 25 μL of the redox indicator Alamar Blue (Biosource International) was added to each well and the plates were incubated for 48 h at 35° C. Wells having yeast growth changed color from blue to pink.
Inoculums are made in the same manner as yeast except all dilutions are made in normal saline, with a final dilution of 1:200 and an inoculum of 10 μL.

[2] = test system: Aspergillus species; assay: Minimum inhibitory concentration (MIC) assay, filamentous fungi; type: cell-based; settings: antifungal activity, lowest concentration at which 75% inhibition of growth is observed after 48 h
Protocol: as §1, §2, §3
Inoculums are made by incubating Aspergillus species for 7 days at 35° C. on potato dextrose agar slants. Slants are then covered with 1.0 mL of 0.85% saline, one drop of Tween 20 is added and colonies are teased with a sterile transfer loop to create a suspension which is allowed to sit for 5 min so heavier particles can drop out. The upper suspension is separated and adjusted to an optical density of 0.09 to 0.11. The resulting suspension is diluted 1:50, which yields 2× the final inoculum needed. Micro dilution trays are prepared as with yeast and incubated for 48 h at 35° C. For our purposes the MIC is defined as the lowest compound concentration at which 75% inhibition of growth is observed after 48 h.

Row | Structure (SMILES) | MIC [1] [µM] | MIC [2] [µM]
1 | N=C(N)NCCCCCNC(=O)c1cc2cc(NC(=O)c3ccc4[nH]c(C(=O)NCCCCCNC(=N)N)cc4c3)ccc2[nH]1 [Compound 20, 1H-Indole-2,5-dicarboxylic acid 2-[(5-guanidino-pentyl)-amide] 5-{[2-(5-guanidino-pentylcarbanzoyl)-1H-indol-5-yl]-amide}] | ≤ 45.5 | ≤ 50
2 | N=C(N)NC1CCC(NC(=O)c2cc3cc(NC(=O)c4ccc5[nH]c(C(=O)NC6CCC(NC(=N)N)CC6)cc5c4)ccc3[nH]2)CC1 (centres unmarked) [Compound 21, 1H-Indole-2,5-dicarboxylic acid 2-[(4-guanidino-cyclohexyl)-amide] 5-{[2-(4-guaizidino-cyclohexylcarbamoyl)-1H-indol-5-yl]-amide}] | ≤ 45.5 | ≤ 50
3 | N=C(N)NCc1ccc(CNC(=O)c2cc3cc(NC(=O)c4ccc5[nH]c(C(=O)NCc6ccc(CNC(=N)N)cc6)cc5c4)ccc3[nH]2)cc1 [Compound 22, 1H-Indole-2,5-dicarboxylic acid 2-(4-guanidinomethyl-benzylamide) 5-{[2-(4-guanidinomethyl-benzylcarbamoyl)-1H-indol-5-yl]-amide}] | ≤ 45.5 | ≤ 50
4 | CC(=N)NCC1CCC(CNC(=O)c2cc3cc(NC(=O)c4ccc5[nH]c(C(=O)NCC6CCC(CNC(C)=N)CC6)cc5c4)ccc3[nH]2)CC1 (centres unmarked) [Compound 23, 1H-Indole-2,5-dicarboxylic acid 2-{[4-(acetimidoylamino-methyl)-cyclohexylmethyl]-amide} 5-[(2-{[4-(acetimidoylamino-methyl)-cyclohexylmethyl]-carbamoyl}-1H-indol-5-yl)-amide]] | ≤ 45.5 | ≤ 50
5 | N=C(N)NCC1CCCC(CNC(=O)c2cc3cc(NC(=O)c4ccc5[nH]c(C(=O)NCC6CCCC(CNC(=N)N)C6)cc5c4)ccc3[nH]2)C1 (centres unmarked) [Compound 24, 1H-Indole-2,5-dicarboxylic acid 2-[(3-guanidinomethyl-cyclohexylmethyl)-amide] 5-({2-[(3-guanidinomethyl-cyclohexylmethyl)-carbamoyl}-1H-indol-5-yl}-amide)] | ≤ 45.5 | ≤ 50
6 | N=C(N)NCc1cccc(CNC(=O)c2cc3cc(NC(=O)c4ccc5[nH]c(C(=O)NCc6cccc(CNC(=N)N)c6)cc5c4)ccc3[nH]2)c1 [Compound 25, 1H-Indole-2,5-dicarboxylic acid 2-(3-guanidinomethyl-benzylamide) 5-{[2-(3-guanidinomethyl-benzylcarbamoyl)-1H-indol-5-yl]-amide}] | ≤ 45.5 | ≤ 50
7 | N=C(N)NCCNC(=O)c1ccc2[nH]c(C(=O)Nc3ccc4cc(C(=O)NCCNC(=N)N)[nH]c4c3)cc2c1 [Compound 47, 1H-Indole-2,5-dicarboxylic acid 5-[(2-guanidino-ethyl)-amide] 2-{[2-(2-guanidino-ethylcarbamoyl)-1H-indol-6-yl]-amide}] | ≤ 45.5 | ≤ 50
8 | CNC(=N)NCCNC(=O)c1ccc2[nH]c(C(=O)Nc3ccc4cc(C(=O)NCCNC(=N)NC)[nH]c4c3)cc2c1 [Compound 48, 1H-Indole-2,5-dicarboxylic acid 5-{[2-(N′-methyl-guanidino)-ethyl]-amide} 2-({2-[2-(N′methyl-guanidino)-ethylcarbamoyl]-1H-indol-6-yl}-amide)] | ≤ 45.5 | ≤ 50
9 | O=C(NCCNC1=NCCN1)c1ccc2[nH]c(C(=O)Nc3ccc4cc(C(=O)NCCNC5=NCCN5)[nH]c4c3)cc2c1 [Compound 50, 1H-Indole-2,5-dicarboxylic acid 5-{[2-(4,5-dihydro-1H-imidazol-2-ylamino)-ethyl]amide} 2-({2-[2-(4,5-dihydro-1H-imidazol-2-ylamino)-ethylcarbamoyl]-1H-indol-6-yl}-amide)] | ≤ 45.5 | ≤ 50
10 | N=C(N)NCCCNC(=O)c1ccc2[nH]c(C(=O)Nc3ccc4cc(C(=O)NCCNC(=N)N)[nH]c4c3)cc2c1 [Compound 52, 1H-Indole-2,5-dicarboxylic acid 2-{[2-(2-guanidinoethylcarbamoyl)-1H-indol-6-yl]amide} 5-[(3-guanidinopropyl)amide]dihydrochloride] | ≤ 45.5 | ≤ 50
11 | C/N=C(\N)NCCCNC(=O)c1ccc2[nH]c(C(=O)Nc3ccc4cc(C(=O)NCCN/C(N)=N/C)[nH]c4c3)cc2c1 [Compound 53, 1H-Indole-2,5-dicarboxylic acid 2-({2-[2-(N′-methylguanidino)ethylcarbamoyl]-1H-indole-6-yl}amide) 5-{[3-(N′-methylguanidino)propyl]amide}dihydrochloride] | ≤ 45.5 | ≤ 50
12 | C/N=C(\NC)NCCCNC(=O)c1ccc2[nH]c(C(=O)Nc3ccc4cc(C(=O)NCCN/C(=N/C)NC)[nH]c4c3)cc2c1 [Compound 54, 1H-Indole-2,5-dicarboxylic acid 2-({2-[2-(N′,N″-dimethylguanidino)ethylcarbamoyl]-1H-indole-6-yl}amide) 5-{[3-(N′,N″-dimethylguanidino)propyl]amide}dihydrochloride] | ≤ 45.5 | ≤ 50
13 | CNC(=N)NCCNC(=O)c1ccc2[nH]c(C(=O)Nc3ccc4[nH]c(C(=O)NCCNC(=N)NC)cc4c3)cc2c1 [Compound 55] | ≤ 45.5 | ≤ 50
14 | O=C(NCCNC1=NCCN1)c1ccc2[nH]c(C(=O)Nc3ccc4[nH]c(C(=O)NCCNC5=NCCN5)cc4c3)cc2c1 [Compound 57, 1H-In dole-2,5-dicarboxylic acid 5-{[2-(4,5-dihydro-1H-imidazol-2-ylamino)ethyl]amide} 2-({2-[2-(4,5-dihydro-1H-imidazol-2-ylamino)ethylcarbamoyl]-1H-indole-5-yl}amide)dihydrochloride] | ≤ 45.5 | ≤ 50
15 | N=C(N)NCCCNC(=O)c1ccc2[nH]c(C(=O)Nc3ccc4[nH]c(C(=O)NCCNC(=N)N)cc4c3)cc2c1 [Compound 58, 1H-Indole-2,5-dicarboxylic acid 2-{[2-(2-guanidinoethylcarbamoyl)-1H-indol-5-yl]amide} 5-[(3-guanidinopropyl)amide]dihydrochloride] | ≤ 45.5 | ≤ 50
16 | C/N=C(\N)NCCCNC(=O)c1ccc2[nH]c(C(=O)Nc3ccc4[nH]c(C(=O)NCCN/C(N)=N/C)cc4c3)cc2c1 [Compound 59, 1H-Indole-2,5-dicarboxylic acid 2-({2-[2-(N′methylguanidino)ethylcarbamoyl]-1H-indol-5-yl}amide) 5-{[3-(N′methylguanidino)propyl]amide}hydrochloride] | ≤ 45.5 | ≤ 50
17 | C/N=C(\NC)NCCCNC(=O)c1ccc2[nH]c(C(=O)Nc3ccc4[nH]c(C(=O)NCCN/C(=N/C)NC)cc4c3)cc2c1 [Compound 60, 1H-Indole-2,5-dicarboxylic acid 2-({2-[2-(N′,N″-dimethylguanidino)ethylcarbamoyl]-1H-indol-5-yl}amide) 5-{[3-(N′,N″-dimethylguanidino)propyl]amide}hydrochloride] | ≤ 45.5 | ≤ 50
18 | N=C(N)CCNC(=O)c1cc2cc(NC(=O)c3cc4cc(C(=O)NCCNC(=N)N)ccc4[nH]3)ccc2[nH]1 [Compound 61, 1H-Indole-2,5-dicarboxylic acid 2-{[2-(2-carbamimidoylethylcarbamoyl)-1H-indol-5-yl]amide} 5-[(2-guanidinoethyl)amide]dihydrochloride] | ≤ 45.5 | ≤ 50
19 | N=C(N)NCCCNC(=O)c1cc2ccc(NC(=O)c3cc4cc(C(=O)NCCNC(=N)N)ccc4[nH]3)cc2[nH]1 [Compound 62, 1H-Indole-2,5-dicarboxylic acid 5-[(2-guanidino-ethyl)-amide] 2-{[2-(3-guanidino-propylcarbamoyl)-1H-indol-6-yl]-amide}] | ≤ 45.5 | ≤ 50
20 | CNC(=N)NCCCNC(=O)c1cc2ccc(NC(=O)c3cc4cc(C(=O)NCCNC(=N)NC)ccc4[nH]3)cc2[nH]1 [Compound 63, 1H-Indole-2,5-dicarboxylic acid 5-{[2-(N′-methyl-guanidino)-ethyl]-amide} 2-({2-[3-(N′-methyl-guanidino)-propylcarbamoyl]-1H-indol-6-yl}-amide)] | ≤ 45.5 | ≤ 50
21 | C/N=C(\NC)NCCCNC(=O)c1cc2ccc(NC(=O)c3cc4cc(C(=O)NCCN/C(=N/C)NC)ccc4[nH]3)cc2[nH]1 [Compound 64] | ≤ 45.5 | ≤ 50
22 | N=C(N)NCCCNC(=O)c1cc2cc(NC(=O)c3cc4cc(C(=O)NCCNC(=N)N)ccc4[nH]3)ccc2[nH]1 [Compound 67, 1H-Indole-2,5-dicarboxylic acid 5-[(2-guanidino-ethyl)-amide] 2-{[2-(3-guanidino-propylcarbamoyl)-1H-indol-5-yl]-amide}] | ≤ 45.5 | ≤ 50
